The structures appear in SMILES notation. “Also recorded” adds a separate entry of the source. Like-named read-outs stand apart in the source and are kept apart here.

The target of assay [1] is T1, NR1/NR2D (Rattus norvegicus, UniProt Q62645). Format: cell-based. As to conditions: for Agonist activity (in words) / EC50 / pEC50 (mean ± SEM) / I/Imax (relative maximal response): NR1/NR2D; for I/Imax (relative maximal response): relative to maximal response to glutamate (1.0).
The target in assay [2] is native NMDA receptors. In words: Radioligand binding assay. As to conditions: rat brain synaptosomes; for [3H]CGP39653 mean pKi ± SEM: three to five experiments; for Ki: read-out: [3H]CGP39653 Ki, mean of three to five experiments.
The target of assay [3] is T2, NR1/NR2B (Rattus norvegicus, UniProt Q00960). The assay is classed as cell-based. As to conditions: NR1/NR2B; for EC50: NR = no response up to 1000 μM.
In assay [4] the target is T3, NR1/NR2C (Rattus norvegicus, UniProt Q00961). Format: cell-based. The note with it: NR1/NR2C; for I/Imax (relative maximal response): relative to maximal response to glutamate (1.0).
The target of assay [5] is T4, NR1/NR2A (Rattus norvegicus, UniProt Q00959). The assay is classed as cell-based. As to conditions: for EC50: NR = no response up to 1000 μM.
Assay [6] has as its target NR1/NR2D (Rattus norvegicus, UniProt P35439+Q62645). Format: cell-based.
Assay [7] has as its target NR1/NR2B (Rattus norvegicus, UniProt P35439+Q00960). Format: cell-based.
For assay [8], the target named is NR1/NR2C (Rattus norvegicus, UniProt P35439+Q00961). Format: cell-based.
The test system of assay [9] is native excitatory amino acid transporters (EAATs). As to conditions: cited from earlier work.
Assay [10] has as its target T4, NR1/NR2A. As to conditions: cited from earlier work.
Assay [11] concerns the target T1, NR1/NR2D. The note with it: cited from earlier work.
Assay [12] deals with T3, NR1/NR2C. The note with it: cited from earlier work.
For assay [13], the target named is T2, NR1/NR2B. As to conditions: cited from earlier work.
Assay [14] addresses native NMDA receptors. The note with it: read-out: [3H]CGP39653 Ki; rat brain synaptosomes; cited from earlier work.
Assay [15] relates to NR2A (Y730 to phenylalanine). As to conditions: mutant vs wild type NR2A; cited from earlier work.
The subject of assay [16] is NR2D(Y732F). The note with it: mutant vs wild type NR2D; cited from earlier work.
[17] abbreviates: relative to maximal response to glutamate (1.0).

T2 sequence (Q00960 27-1482, other chains not shown): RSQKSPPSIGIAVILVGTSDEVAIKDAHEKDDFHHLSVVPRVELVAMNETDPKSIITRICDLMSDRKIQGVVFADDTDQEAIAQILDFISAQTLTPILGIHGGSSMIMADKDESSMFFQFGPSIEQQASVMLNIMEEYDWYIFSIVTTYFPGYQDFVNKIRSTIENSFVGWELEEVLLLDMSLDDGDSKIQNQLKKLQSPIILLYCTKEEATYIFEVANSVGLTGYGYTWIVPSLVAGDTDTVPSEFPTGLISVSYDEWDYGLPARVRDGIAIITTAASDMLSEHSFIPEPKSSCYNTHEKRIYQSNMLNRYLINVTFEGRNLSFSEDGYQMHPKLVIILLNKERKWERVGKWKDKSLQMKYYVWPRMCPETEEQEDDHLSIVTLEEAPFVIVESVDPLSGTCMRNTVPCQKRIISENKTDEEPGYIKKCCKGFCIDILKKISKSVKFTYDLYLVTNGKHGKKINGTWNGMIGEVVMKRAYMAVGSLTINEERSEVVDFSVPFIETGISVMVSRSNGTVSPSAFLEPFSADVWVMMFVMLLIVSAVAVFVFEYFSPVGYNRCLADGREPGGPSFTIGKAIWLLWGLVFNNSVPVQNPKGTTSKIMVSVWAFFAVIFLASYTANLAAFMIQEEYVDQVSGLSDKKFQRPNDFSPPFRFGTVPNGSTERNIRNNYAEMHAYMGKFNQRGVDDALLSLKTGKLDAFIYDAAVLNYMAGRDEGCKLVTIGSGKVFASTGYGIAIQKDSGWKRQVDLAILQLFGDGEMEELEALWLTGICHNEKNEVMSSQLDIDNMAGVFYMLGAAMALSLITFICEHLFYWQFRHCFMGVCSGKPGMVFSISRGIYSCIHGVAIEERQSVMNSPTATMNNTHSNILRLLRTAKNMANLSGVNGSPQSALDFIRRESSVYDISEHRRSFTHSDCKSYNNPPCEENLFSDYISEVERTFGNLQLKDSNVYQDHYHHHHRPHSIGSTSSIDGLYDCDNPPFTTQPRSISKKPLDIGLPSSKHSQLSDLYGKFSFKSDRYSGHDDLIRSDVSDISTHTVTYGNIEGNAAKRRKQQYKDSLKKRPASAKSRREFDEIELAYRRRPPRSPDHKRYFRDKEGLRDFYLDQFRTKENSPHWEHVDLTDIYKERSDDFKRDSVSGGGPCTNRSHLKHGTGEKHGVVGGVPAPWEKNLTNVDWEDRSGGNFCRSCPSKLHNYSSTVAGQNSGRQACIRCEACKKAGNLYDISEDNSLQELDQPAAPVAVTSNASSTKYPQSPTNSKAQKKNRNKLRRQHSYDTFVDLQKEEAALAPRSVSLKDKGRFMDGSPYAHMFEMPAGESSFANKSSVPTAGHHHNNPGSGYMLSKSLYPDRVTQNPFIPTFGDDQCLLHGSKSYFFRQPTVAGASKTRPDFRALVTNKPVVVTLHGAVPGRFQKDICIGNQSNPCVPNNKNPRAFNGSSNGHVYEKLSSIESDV
T4 sequence (Q00959 23-1464, other chains not shown): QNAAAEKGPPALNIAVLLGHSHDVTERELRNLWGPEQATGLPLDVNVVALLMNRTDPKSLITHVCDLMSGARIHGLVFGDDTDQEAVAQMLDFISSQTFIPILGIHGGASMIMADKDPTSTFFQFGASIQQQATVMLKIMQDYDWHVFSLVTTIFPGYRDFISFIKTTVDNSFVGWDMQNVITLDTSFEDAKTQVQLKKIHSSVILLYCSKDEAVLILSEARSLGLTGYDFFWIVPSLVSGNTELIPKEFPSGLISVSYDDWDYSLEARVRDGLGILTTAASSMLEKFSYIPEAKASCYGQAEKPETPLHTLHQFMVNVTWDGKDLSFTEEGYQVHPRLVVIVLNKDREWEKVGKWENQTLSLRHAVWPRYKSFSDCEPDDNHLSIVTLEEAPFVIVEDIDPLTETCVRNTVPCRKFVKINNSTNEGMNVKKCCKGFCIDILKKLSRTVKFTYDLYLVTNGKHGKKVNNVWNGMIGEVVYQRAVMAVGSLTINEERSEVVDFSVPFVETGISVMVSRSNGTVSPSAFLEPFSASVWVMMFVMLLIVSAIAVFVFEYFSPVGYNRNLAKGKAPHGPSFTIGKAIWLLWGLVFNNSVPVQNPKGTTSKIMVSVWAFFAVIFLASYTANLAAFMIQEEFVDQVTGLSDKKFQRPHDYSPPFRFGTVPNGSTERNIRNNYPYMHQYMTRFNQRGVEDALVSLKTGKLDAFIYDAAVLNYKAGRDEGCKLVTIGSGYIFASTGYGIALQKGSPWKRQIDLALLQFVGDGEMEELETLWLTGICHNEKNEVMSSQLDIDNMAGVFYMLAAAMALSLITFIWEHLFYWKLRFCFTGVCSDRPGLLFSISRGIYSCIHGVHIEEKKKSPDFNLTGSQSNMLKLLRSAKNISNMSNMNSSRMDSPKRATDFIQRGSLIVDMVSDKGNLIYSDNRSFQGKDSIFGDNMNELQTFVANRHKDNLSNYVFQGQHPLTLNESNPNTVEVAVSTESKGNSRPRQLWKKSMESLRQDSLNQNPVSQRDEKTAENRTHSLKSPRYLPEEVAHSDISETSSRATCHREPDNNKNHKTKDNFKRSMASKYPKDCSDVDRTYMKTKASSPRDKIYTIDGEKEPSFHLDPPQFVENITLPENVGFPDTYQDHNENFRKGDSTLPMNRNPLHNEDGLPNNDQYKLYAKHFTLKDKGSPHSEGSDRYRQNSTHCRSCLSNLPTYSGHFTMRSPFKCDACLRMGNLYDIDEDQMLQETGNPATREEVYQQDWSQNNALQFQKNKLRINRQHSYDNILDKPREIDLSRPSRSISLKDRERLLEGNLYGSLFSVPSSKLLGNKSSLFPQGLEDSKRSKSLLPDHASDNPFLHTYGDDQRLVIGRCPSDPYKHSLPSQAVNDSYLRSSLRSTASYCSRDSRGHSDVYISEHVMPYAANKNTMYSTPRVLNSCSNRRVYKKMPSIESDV
T1 sequence (Q62645 28-1323, other chains not shown): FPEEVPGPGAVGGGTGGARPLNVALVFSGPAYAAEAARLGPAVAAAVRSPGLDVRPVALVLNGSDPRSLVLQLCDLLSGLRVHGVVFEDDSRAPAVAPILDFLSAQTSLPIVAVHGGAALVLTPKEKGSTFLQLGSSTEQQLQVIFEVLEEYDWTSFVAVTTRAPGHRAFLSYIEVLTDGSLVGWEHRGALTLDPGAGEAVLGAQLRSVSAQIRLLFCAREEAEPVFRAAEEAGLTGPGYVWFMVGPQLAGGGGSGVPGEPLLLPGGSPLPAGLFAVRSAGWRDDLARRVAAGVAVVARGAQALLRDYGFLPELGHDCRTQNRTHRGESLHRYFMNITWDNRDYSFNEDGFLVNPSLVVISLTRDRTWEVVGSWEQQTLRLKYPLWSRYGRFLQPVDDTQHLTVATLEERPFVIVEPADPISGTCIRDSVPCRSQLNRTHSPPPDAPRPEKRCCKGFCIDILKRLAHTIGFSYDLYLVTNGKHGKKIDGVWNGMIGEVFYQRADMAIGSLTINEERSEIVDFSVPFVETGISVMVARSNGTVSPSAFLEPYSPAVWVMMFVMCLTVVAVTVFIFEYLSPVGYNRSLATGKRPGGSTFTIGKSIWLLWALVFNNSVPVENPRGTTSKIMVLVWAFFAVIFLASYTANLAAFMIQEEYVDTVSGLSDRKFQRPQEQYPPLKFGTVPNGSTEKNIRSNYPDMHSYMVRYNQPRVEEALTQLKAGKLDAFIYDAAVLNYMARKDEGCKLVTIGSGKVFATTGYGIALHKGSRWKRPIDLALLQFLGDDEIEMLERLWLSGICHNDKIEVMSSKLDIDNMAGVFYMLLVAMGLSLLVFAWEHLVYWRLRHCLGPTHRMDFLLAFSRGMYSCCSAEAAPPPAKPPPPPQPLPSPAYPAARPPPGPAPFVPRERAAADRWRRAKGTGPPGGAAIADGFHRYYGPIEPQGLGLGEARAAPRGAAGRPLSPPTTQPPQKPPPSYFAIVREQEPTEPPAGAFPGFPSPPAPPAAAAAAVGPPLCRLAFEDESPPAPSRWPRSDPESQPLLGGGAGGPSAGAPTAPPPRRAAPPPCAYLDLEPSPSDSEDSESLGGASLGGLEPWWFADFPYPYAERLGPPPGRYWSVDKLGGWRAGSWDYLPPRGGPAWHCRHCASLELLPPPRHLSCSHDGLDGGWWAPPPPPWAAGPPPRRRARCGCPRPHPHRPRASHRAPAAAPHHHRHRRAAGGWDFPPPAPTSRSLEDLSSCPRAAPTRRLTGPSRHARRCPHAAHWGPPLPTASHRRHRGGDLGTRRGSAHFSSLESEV
NR1/NR2D (Rattus norvegicus, UniProt P35439+Q62645), sequence (Q62645 28-1323, other chains not shown): as above

The term EC50 denotes the midpoint of the concentration-response curve. Usually Ki stands for a measure of affinity in units of concentration, obtained from inhibition or displacement. As for `O=C(O)[C@H]1CN[C@H]1C(=O)O` [D-cis-ADC, (2R,3S)-Azetidine-2,3-dicarboxylic acid], in assay [1], the “Agonist activity (in words)” value is reported as “activated; also recorded: partial agonist”, the EC50 came to 230 µM, the “pEC50 (mean ± SEM)” value stood at 3.63±0.01 and the “I/Imax (relative maximal response)” value is listed as 0.67 ± 0.01. In assay [2], the “[3H]CGP39653 mean pKi ± SEM” value amounted to 4.74 ± 0.13 and the Ki stood at 21 µM. In addition, in [3], the “Agonist activity (in words)” value is reported as “activated” and the 50% effective concentration (EC50) was over 3000 µM. In addition, in assay [4], the “Agonist activity (in words)” value is “activated; also recorded: partial agonist”, the half-maximal effective concentration (EC50) came to 720 µM, the “pEC50 (mean ± SEM)” value worked out at 3.15±0.06 and the “I/Imax (relative maximal response)” value was found to be 0.47 ± 0.03. In addition, in assay [5], the 50% effective concentration (EC50) was over 1000 µM.
As to `O=C(O)[C@@H]1CN[C@H]1C(=O)O` [D-trans-ADC, (2R,3R)-Azetidine-2,3-dicarboxylic acid], the EC50 is 660 µM in [6], over 1000 µM in assay [7], over 1000 µM in assay [8] and over 1000 µM in assay [5]. Also, the “Agonist activity (in words)” value in assay [1], in assay [3] and in assay [4] was “activated” throughout. For the same molecule, the “I/Imax (relative maximal response)” value in assay [1] is 0.69 ± 0.01. The “Affinity for glutamate binding site of native NMDA receptors (in words)” value in assay [2] is “essentially without affinity”. For the same molecule, the “[3H]CGP39653 mean pKi ± SEM” value in assay [2] is 4.05 ± 0.03. The Ki in assay [2] is 90 µM.
Turning to `O=C(O)[C@H]1NC[C@H]1C(=O)O` [L-cis-ADC], the “Agonist activity (in words)” value in assay [1] is “only at high concentrations (1000 μM) some activation”; in assay [3], “unable to activate”; in [4], “only at high concentrations (1000 μM) some activation”; in assay [5], “unable to activate”. For the same molecule, the EC50 in [1], in assay [3], in assay [4] and in assay [5] was over 1000 µM each time. For the same molecule, the “Affinity for glutamate binding site of native NMDA receptors (in words)” value in assay [2] was “essentially without affinity”. Besides, in [2], the Ki is over 100 µM.
In the case of `O=C(O)[C@H]1CN[C@@H]1C(=O)O` [L-trans-ADC], the concentration for a half-maximal effect (EC50) is 50 µM in [1], 170 µM in assay [3], 95 µM in [4] and 470 µM in assay [5]. For the same molecule, the “pEC50 (mean ± SEM)” value in assay [1] stood at 4.30±0.02; in assay [3], 3.76±0.01; in assay [4], 4.02±0.02; in assay [5] it was 3.32±0.03. Moreover, the “Preference (agonist potency) for NR1/NR2D over NR1/NR2A” value in assay [1] (NR1/NR2D vs NR1/NR2A) is listed as 9.4 fold. The “Preference (agonist potency) for NR1/NR2D over NR1/NR2B” value in assay [1] (NR1/NR2D vs NR1/NR2B) was 3.4 fold. Moreover, the “Preference (agonist potency) for NR1/NR2D over NR1/NR2C” value in [1] (NR1/NR2D vs NR1/NR2C) is listed as 1.9 fold. In addition, the “I/Imax (relative maximal response)” value in assay [1] is on record as 0.80 ± 0.01; in assay [3] (setting [17]) it was 0.48 ± 0.01; in assay [4] it was 0.73 ± 0.03; in assay [5] (setting [17]) it was 0.38 ± 0.02. The “[3H]CGP39653 mean pKi ± SEM” value in [2] came to 5.04 ± 0.10. The Ki in assay [2] stood at 10 µM. The “Agonist activity (in words)” value in [5] is reported as “able to (partially) activate”. Also, the “Affinity at native EAATs (in words)” value in assay [9] was “affinity in the medium micromolar range”.
As to `CN[C@H](CC(=O)O)C(=O)O` [NMDA, N-methyl-D-aspartic acid], the EC50 in [10] was 75 µM; in [11] (NR1/NR2D), 8.3 µM; in assay [12] it was 23 µM; in assay [13], 22 µM. Further, the “pEC50 (mean ± SEM)” value is given as 4.13±0.07 in assay [10], 5.08±0.04 in [11] (NR1/NR2D), 4.63±0.02 in assay [12] and 4.66±0.03 in assay [13]. In addition, the “I/Imax (relative maximal response)” value in assay [10] (relative to glutamate (1.0)) is given as 0.90 ± 0.04; in [11] (NR1/NR2D, relative to glutamate (1.0)), 0.80 ± 0.02; in assay [12] (relative to glutamate (1.0)), 0.73 ± 0.02; in assay [13] (relative to glutamate (1.0)), 0.77 ± 0.01. Also, in [14], the Ki is 6.2 µM.
For the molecule `C[C@H](C[C@H](N)C(=O)O)C(=O)O` [SYM2081, (2S,4R)-4-methylglutamate], in [11] (NR1/NR2D vs NR1/NR2A), the “Higher potency at NR1/NR2D over NR1/NR2A” value is given as 46 fold.
On to `N[C@@H](CCC(=O)O)C(=O)O` [glutamate, (S)-glutamate], for which the “Decrease of potency by mutation Y730 to phenylalanine in NR2A” value in assay [15] is listed as 45 fold. In addition, the “Change of potency on NR2D(Y732F) (in words)” value in assay [16] is reported as “slightly increased”.

(Values after article PMC4664181 (ChemMedChem, 2009).)
